US12043613B2, “Inhibitors of SARM1” (Disarm Therapeutics, Inc., priority 2020, dated 2024)

target: T1, SARM1 (ARM-SAM-TIR, full length SARM1) (Homo sapiens, UniProt Q6SZW1); test: biochemical; settings: SARM1 IC50 (nM), ARM-SAM-TIR lysate 5 μg/mL from NRK1-HEK293T cells, 2 h pre-incubation, 5 uM NAD+, 2 hr room temperature
T1 sequence (Q6SZW1 with tags, fused parts or gaps): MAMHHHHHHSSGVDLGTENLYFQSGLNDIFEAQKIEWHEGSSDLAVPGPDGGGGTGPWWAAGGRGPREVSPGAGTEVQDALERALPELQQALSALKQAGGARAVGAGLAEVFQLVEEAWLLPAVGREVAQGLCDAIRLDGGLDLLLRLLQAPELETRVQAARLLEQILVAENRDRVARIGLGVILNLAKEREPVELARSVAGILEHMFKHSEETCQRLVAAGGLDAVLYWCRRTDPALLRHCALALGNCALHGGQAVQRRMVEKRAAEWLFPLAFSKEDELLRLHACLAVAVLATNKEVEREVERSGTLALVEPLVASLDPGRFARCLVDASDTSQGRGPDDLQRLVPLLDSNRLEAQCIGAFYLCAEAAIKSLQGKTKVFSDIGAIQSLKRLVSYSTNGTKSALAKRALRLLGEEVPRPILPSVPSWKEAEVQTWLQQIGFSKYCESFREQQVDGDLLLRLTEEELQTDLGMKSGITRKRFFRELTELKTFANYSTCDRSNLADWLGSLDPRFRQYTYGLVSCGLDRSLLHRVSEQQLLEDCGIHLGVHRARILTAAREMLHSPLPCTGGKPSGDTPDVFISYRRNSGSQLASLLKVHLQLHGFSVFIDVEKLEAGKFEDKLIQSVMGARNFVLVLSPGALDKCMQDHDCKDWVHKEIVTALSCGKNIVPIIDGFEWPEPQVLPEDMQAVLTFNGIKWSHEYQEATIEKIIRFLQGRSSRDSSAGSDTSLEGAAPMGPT
Procedure: This assay makes use of full length SARM1, which encompasses the ARM, SAM and TIR domains.
Preparation of ARM-SAM-TIR lysate (STL)
NRK1-HEK293T cells were seeded onto 150 cm^2 plates at 20×10^6 cells per plate. The next day, the cells were transfected with 15 g ARM-SAM-TIR expression plasmid, SEQ ID NO: 1.
The cultures were supplemented with 1 mM NR at time of transfection to minimize toxicity from ARM-SAM-TIR overexpression. Forty-eight hours after transfection, cells were harvested, pelleted by centrifugation at 1,000 rpm (Sorvall ST 16R centrifuge, Thermo Fisher), and washed once with cold PBS (0.01 M phosphate buffered saline NaCl 0.138 M; KCl 0.0027 M; pH 7.4). The cells were resuspended in PBS with protease inhibitors (cOmplete™ protease inhibitor cocktail, Roche product #11873580001) and cell lysates were prepared by sonication (Branson Sonifer 450, output=3, 20 episodes of stroke). The lysates were centrifuged (12,000×g for 10 min at 4° C.) to remove cell debris and the supernatants (containing ARM-SAM-TIR protein) were stored at −80° C. for later use in the in vitro ARM-SAM-TIR NADase assay (see below). Protein concentration was determined by the Bicinchoninic (BCA) method and used to normalize lysate concentrations.
ARM-SAM-TIR IC50 assay of Formula I compounds.
The enzymatic assay was performed in a 384-well polypropylene plate in Dulbecco's PBS buffer in a final assay volume of 20 μL. ARM-SAM-TIR lysate with a final concentration of 5 μg/mL was pre-incubated with the respective compound at 1% DMSO final assay concentration over 2h at room temperature. The reaction was initiated by addition of 5 uM final assay concentration of NAD+ as substrate. After a 2 hr room temperature incubation, the reaction was terminated with 40 μL of stop solution of 7.5% trichloroactetic acid in acetonitrile. The NAD+ and ADPR concentrations were analyzed by a RapidFire High Throughput Mass Spectrometry System (Agilent Technologies, Santa Clara, Calif.) using an API4000 triple quadrupole mass spectrometer (AB Sciex Framingham, Mass.).

Compound	IC50 [nM]
O=C1C(Cc2ccc(Cl)cc2)CNCCN1c1nc(-c2ccncc2)n[nH]1 (single isomer, unassigned) [I-38* (peak 2)]	> 1000
N#Cc1ccc(CC2CCN(c3nnc(-c4ccncc4)[nH]3)C2=O)cc1F (single isomer, unassigned) [I-26* (peak 1)]	101 to 500
O=C1C(Cc2ccc(Cl)nc2)CCCN1c1nnc(-c2ccncc2)[nH]1 (single isomer, unassigned) [I-55* (peak 1)]	51 to 100

Further lines, results first:

IC50 [nM]	Compound
51 to 100	N#Cc1c(-c2ccncc2)n[nH]c1N1CCC(Cc2ccc(F)c(F)c2)C1=O (stereo not shown) [Compound I-53]
< 50	O=C1C(Cc2ccc(F)nc2)CCN1c1cc(-c2ccncc2)n[nH]1 (stereo not shown) [Compound I-67]
101 to 500	Cc1c(-c2ccncc2)n[nH]c1N1CCC(Cc2cnc(Cl)c(F)c2)C1=O (stereo not shown) [Compound I-41]
< 50	O=C1C(Cc2ccc(F)nc2)CCCN1c1nnc(-c2ccncc2)[nH]1 (stereo not shown) [Compound I-23]
101 to 500	O=C1C(Cc2ccc(Cl)cc2)NCN1c1cc(-c2ccncc2)n[nH]1 (stereo not shown) [Compound I-59]
< 50	[2H]C([2H])(c1ccc(Cl)nc1)C1([2H])C(=O)N(c2cc(-c3ccncc3)n[nH]2)C([2H])([2H])C([2H])([2H])C1([2H])[2H] (stereo not shown) [Compound I-79]
> 1000	O=C1N(c2nc(-c3ccncc3)n[nH]2)CCC1(F)Cc1ccc(Cl)nc1 (stereo not shown) [Compound I-42]
101 to 500	O=C1C(Cc2ccc(C(F)(F)F)nc2)CCCN1c1cc(-c2ccncc2)n[nH]1 (stereo not shown) [Compound I-96]
101 to 500	N#Cc1ccc(CC2CCCN(c3cc(-c4ccncc4)n[nH]3)C2=O)cn1 (stereo not shown) [Compound I-94]
501 to 1000	O=C1C(Cc2ccc(Cl)cc2)CNCCN1c1nc(-c2ccncc2)n[nH]1 (stereo not shown) [Compound I-38]

target: T1, SARM1 (ARM-SAM-TIR, full length SARM1); test: not given; settings: read-out: SARM1 IC50; ARM-SAM-TIR lysate 5 μg/mL from NRK1-HEK293T cells, 2 h pre-incubation, 5 uM NAD+, 2 hr room temperature

Compound	IC50 [nM]
O=C1C(Cc2ccc(Cl)cc2)CCCN1c1nnc(-c2ccncc2)[nH]1 (single isomer, unassigned) [I-5* (peak 2)]	< 50
O=C1[C@H](Cc2ccc(F)nc2)CCCN1c1cc(-c2ccnnc2)n[nH]1 [I-84*]	< 50
O=C1N(c2nc(-c3ccncc3)n[nH]2)CCC1(F)Cc1ccc(Cl)nc1 (single isomer, unassigned) [I-42* (peak 2)]	> 1000
Cc1c(-c2ccncc2)n[nH]c1N1CCC(Cc2ccc(Cl)nc2)C1=O (single isomer, unassigned) [I-48* (peak 2)]	101 to 500
N#Cc1ccc(CC2CCN(c3cc(-c4ccncc4)n[nH]3)C2=O)cc1F (single isomer, unassigned) [I-37* (peak 2)]	51 to 100
O=C1C(Cc2ccc(Cl)cc2)CCCN1c1cc(-c2ccncc2)n[nH]1 (single isomer, unassigned) [I-19* (peak 2)]	< 50
O=C1C(Cc2ccc(F)c(F)c2)CCN1c1cc(-c2ccncc2)n[nH]1 (single isomer, unassigned) [I-16* (peak 2)]	< 50
O=C1C(Cc2cnc(Cl)c(F)c2)CCN1c1cc(-c2ccncc2)n[nH]1 (single isomer, unassigned) [I-65* (peak 2)]	< 50
O=C1[C@H](Cc2ccc(Cl)c(F)c2)CCCN1c1cc(-c2ccnnc2)n[nH]1 [I-76*]	< 50
O=C1[C@H](Cc2ccc(F)cc2)CCCN1c1cc(-c2ccnnc2)n[nH]1 [I-85*]	< 50
O=C1[C@H](Cc2ccc(Cl)nc2)CCCN1c1cc(-c2ccnnc2)n[nH]1 [I-77*]	< 50
Cc1c(-c2ccncc2)n[nH]c1N1CCC(Cc2cnc(Cl)c(F)c2)C1=O (single isomer, unassigned) [I-41* (peak 2)]	101 to 500
